Active and inactive are the calls of the source.
Experiments:
[1] = target: T1, Tyrosine-protein phosphatase non-receptor type 22 (Homo sapiens, UniProt Q9Y2R2); type: functional
T1 sequence (Q9Y2R2 whole entry): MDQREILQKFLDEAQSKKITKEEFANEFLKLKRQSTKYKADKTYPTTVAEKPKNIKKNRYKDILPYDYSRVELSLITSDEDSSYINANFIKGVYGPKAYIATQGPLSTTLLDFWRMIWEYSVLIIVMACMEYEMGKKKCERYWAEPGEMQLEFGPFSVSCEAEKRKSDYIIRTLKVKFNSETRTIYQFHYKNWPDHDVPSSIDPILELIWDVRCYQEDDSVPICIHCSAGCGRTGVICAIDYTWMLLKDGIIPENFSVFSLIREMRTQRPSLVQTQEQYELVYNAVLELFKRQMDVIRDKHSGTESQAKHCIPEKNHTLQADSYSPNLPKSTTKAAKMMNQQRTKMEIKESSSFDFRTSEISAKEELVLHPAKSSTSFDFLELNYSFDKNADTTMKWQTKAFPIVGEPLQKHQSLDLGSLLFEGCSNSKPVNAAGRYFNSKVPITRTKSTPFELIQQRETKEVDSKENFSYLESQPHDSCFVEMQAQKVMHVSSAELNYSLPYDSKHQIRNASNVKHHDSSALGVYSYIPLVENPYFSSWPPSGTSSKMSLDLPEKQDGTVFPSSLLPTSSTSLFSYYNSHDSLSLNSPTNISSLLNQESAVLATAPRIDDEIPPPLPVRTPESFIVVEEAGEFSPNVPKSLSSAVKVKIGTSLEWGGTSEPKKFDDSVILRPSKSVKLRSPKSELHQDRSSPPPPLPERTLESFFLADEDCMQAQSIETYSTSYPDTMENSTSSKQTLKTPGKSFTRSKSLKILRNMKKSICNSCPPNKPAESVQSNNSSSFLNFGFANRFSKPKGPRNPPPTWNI

[2] = target: T1, Tyrosine-protein phosphatase non-receptor type 22; type: functional; remark: listed apart in the source
[3] = target: T2, Tyrosine-protein phosphatase non-receptor type 7 (Homo sapiens, UniProt P35236); type: functional
T2 sequence (P35236 whole entry): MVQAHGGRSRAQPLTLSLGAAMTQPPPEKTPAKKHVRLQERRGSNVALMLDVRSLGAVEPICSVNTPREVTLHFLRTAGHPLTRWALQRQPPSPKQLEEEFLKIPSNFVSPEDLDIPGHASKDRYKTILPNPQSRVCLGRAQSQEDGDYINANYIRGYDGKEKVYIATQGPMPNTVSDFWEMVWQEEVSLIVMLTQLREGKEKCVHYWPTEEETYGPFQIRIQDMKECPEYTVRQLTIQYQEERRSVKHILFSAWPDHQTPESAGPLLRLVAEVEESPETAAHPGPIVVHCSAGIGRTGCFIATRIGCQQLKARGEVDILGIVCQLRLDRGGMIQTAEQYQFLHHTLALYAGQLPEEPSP

Fatty acid synthase [4] = target: T3, Fatty acid synthase (Homo sapiens, UniProt P49327); test: inhibition of human FAS-TE enzyme activity – biochemical, endpoint fluorescence intensity, uHTS hits, dose response (AID 624327); type: functional;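 also: fluorescence from hydrolysis of an O-methyl fluorescein acyl ester substrate by the enzyme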
[5] = (§1) Late stage assay provider results from the probe development effort to identify inhibitors of Protein Phosphatase Methylesterase 1 (PME-1): luminescence-based biochemical dose response assay to determine cytotoxicity of inhibitor compounds. [Related pubchem assays (depositor defined):AID2130, AID2143, AID2171, AID2174, AID2177, AID2232, AID2233, AID2291, AID2363, AID2365, AID2366, AID2368, AID2369, AID2371, AID463124, AID463130, AID463131, AID463132, AID463146, AID463149] Panel member name: Fetal Calf Serum; type: toxicity
Fatty acid synthase [6] = target: T3, Fatty acid synthase; test: inhibition of human FAS-TE enzyme activity – biochemical, kinetic fluorescence intensity, dose response (AID 624326); type: functional;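 also: rate of fluorescence rise from hydrolysis of a fluorogenic O-methyl fluorescein ester substrate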
[7] = as §1, with “Serum-free Media” for “Fetal Calf Serum”; type: toxicity
H9c2 = test: cells; type: functional, cell-based; conditions: Rattus norvegicus, H9c2, Myocardium;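 also: confirmatory concentration-response retest of ultra-high-throughput screening hits for modulation of myocardial damage; cell death induced by hydrogen peroxide oxidative stress; compound pretreatment for 60 min then peroxide exposure for 2 h; potency is for protecting the cells against peroxide damage rather than for killing them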
H4 = test: Luminescence Cell-Based Dose Response HTS to Identify Activators of 5'UTR Stem-Loop Driven Prion Protein mRNA Translation in H4 Neuroglioblastoma Cells. [Related pubchem assays: 1829 (Project Summary), 1814 (Primary HTS)]; type: functional; conditions: Homo sapiens
Beta-galactosidase = Beta-galactosidase (Escherichia coli, UniProt Q8VNN2); type: functional
[8] = target: T4, Kappa-type opioid receptor (Homo sapiens, UniProt P41145); type: functional
[9] = target: T4, Kappa-type opioid receptor; test: kappa opioid receptor blockers, cell-based, luminescence, beta-arrestin, SAR follow-up (AID 2285); type: functional
[10] = target: T4, Kappa-type opioid receptor; type: functional; remark: listed apart in the source
[11] = Luminescence Cell-Based Dose Confirmation HTS to Identify Activators of 5'UTR Stem-Loop Driven Alpha-Synuclein mRNA Translation in H4 Neuroglioblastoma Cells. [Related pubchem assays: 1829 (Project Summary), 1814 (Primary HTS)]; type: functional
[12] = target: T4, Kappa-type opioid receptor; test: kappa opioid receptor activation potency – imaging, image-based, SAR follow-up (AID 2359); type: functional
Mu-type opioid receptor [13] = target: T5, Mu-type opioid receptor (Homo sapiens, UniProt P35372); test: mu opioid receptor blockers – image-based, SAR follow-up (AID 2420); type: functional;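 also: compounds added before stimulation of receptor with agonist DAMGO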
Mu-type opioid receptor [14] = target: T5, Mu-type opioid receptor; test: mu opioid receptor activators, image-based, SAR follow-up (AID 2352); type: functional
[15] = Luminescence Cell-Based Dose Response HTS to Identify Activators of Luciferase Translation or Activity in H4 […] Cells. [Related pubchem assays: 1829 (Project Summary), 1814 (Primary HTS)]; type: functional
[16] = target: T6, Delta-type opioid receptor (Homo sapiens, UniProt P41143); test: delta opioid receptor blockers – image-based, SAR follow-up (AID 2357); type: functional
[17] = target: T4, Kappa-type opioid receptor; test: kappa opioid receptor blockers, image-based, SAR follow-up (AID 2348); type: functional
[18] = target: T6, Delta-type opioid receptor; test: DOR agonists, SAR follow-up, image-based (AID 2370); type: functional
[19] = target: T7, G-protein coupled receptor 35 (Homo sapiens, UniProt Q9HC97); test: SAR analysis of Agonists of the GPR35 Receptor using an Image-Based Assay - Set 2. [Related pubchem assays (depositor defined):AID2013, AID2026]; type: functional
[20] = target: T7, G-protein coupled receptor 35; test: SAR analysis of Antagonists of the GPR35 Receptor using an Image-Based Assay - Set 3. [Related pubchem assays (depositor defined):AID2013, AID2026]; type: functional
Cannabinoid receptor 1 [21] = target: T8, Cannabinoid receptor 1 (Homo sapiens, UniProt P21554); test: SAR analysis of antagonists of the Cannabinoid Receptor 1 using an Image-Based Assay - Set 2. [Related pubchem assays (depositor defined):AID2013, AID2026]; type: functional
Cannabinoid receptor 2 [22] = target: T9, Cannabinoid receptor 2 (Homo sapiens, UniProt P34972); test: SAR analysis of agonists of the Cannabinoid Receptor 2 using an Image-Based Assay. [Related pubchem assays (depositor defined):AID2013, AID2026]; type: functional
[23] = target: T10, G-protein coupled receptor 55 (Homo sapiens, UniProt Q9Y2T6); test: inhibition of LPI-stimulated GPR55 beta-arrestin translocation – imaging, U2OS, beta-arrestin-GFP, LPI agonist, primary screen (AID 2013); type: functional;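 also: antagonist potency measured as reduced agonist-driven arrestin aggregation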
Cannabinoid receptor 1 [24] = target: T8, Cannabinoid receptor 1; test: SAR analysis of agonists of the Cannabinoid Receptor 1 using an Image-Based Assay - Set 2. [Related pubchem assays (depositor defined):AID2013, AID2026]; type: functional
[25] = target: T10, G-protein coupled receptor 55; test: blockade of LPI-induced GPR55 arrestin translocation – imaging, U2OS, beta-arrestin-GFP, LPI agonist, set 2, SAR follow-up (AID 2820); type: functional
Cannabinoid receptor 2 [26] = target: T9, Cannabinoid receptor 2; test: SAR analysis of antagonists of the Cannabinoid Receptor 2 using an Image-Based Assay. [Related pubchem assays (depositor defined):AID2013, AID2026]; type: functional

T4 sequence (P41145 whole entry): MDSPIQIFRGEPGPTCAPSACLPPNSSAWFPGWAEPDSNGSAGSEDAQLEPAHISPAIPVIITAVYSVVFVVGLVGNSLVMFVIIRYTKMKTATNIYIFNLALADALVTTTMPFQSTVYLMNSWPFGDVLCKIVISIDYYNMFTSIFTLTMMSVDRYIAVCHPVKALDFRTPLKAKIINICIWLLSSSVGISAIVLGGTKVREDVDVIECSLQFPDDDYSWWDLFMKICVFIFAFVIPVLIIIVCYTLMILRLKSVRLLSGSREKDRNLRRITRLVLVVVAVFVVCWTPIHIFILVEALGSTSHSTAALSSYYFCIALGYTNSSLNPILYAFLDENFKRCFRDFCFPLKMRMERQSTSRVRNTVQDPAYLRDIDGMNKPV
T9 sequence (P34972 whole entry): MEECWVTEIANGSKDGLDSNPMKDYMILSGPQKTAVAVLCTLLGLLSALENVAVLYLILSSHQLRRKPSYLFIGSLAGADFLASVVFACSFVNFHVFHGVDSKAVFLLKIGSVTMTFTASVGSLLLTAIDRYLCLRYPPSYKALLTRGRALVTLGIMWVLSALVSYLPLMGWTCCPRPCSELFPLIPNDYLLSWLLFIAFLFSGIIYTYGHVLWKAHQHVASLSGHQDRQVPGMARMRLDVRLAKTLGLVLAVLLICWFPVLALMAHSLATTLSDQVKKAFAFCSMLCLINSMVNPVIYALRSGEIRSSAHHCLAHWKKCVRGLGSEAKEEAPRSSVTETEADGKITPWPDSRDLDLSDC
T7 sequence (Q9HC97 whole entry): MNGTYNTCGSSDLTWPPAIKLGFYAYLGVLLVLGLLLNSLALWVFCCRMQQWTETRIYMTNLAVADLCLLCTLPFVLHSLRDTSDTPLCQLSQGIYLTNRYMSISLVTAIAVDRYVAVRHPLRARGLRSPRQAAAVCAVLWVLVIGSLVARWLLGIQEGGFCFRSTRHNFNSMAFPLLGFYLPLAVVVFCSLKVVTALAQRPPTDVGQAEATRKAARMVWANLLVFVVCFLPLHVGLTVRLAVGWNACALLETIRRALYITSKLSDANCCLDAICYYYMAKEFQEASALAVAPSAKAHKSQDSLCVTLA
T8 sequence (P21554 whole entry): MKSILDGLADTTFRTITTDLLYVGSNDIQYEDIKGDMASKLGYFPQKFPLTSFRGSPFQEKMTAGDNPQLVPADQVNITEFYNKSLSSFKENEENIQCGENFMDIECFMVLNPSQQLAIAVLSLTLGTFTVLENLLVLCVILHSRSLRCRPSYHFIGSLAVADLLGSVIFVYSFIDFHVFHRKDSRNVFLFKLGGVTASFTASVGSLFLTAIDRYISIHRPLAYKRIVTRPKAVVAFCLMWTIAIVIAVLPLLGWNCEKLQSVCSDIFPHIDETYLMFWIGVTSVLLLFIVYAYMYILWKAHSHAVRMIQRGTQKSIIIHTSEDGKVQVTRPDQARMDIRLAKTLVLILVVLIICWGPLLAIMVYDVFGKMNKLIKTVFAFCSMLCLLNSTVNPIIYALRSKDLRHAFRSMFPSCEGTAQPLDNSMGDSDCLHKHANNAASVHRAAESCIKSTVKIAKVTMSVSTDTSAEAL
T3 sequence (P49327 whole entry): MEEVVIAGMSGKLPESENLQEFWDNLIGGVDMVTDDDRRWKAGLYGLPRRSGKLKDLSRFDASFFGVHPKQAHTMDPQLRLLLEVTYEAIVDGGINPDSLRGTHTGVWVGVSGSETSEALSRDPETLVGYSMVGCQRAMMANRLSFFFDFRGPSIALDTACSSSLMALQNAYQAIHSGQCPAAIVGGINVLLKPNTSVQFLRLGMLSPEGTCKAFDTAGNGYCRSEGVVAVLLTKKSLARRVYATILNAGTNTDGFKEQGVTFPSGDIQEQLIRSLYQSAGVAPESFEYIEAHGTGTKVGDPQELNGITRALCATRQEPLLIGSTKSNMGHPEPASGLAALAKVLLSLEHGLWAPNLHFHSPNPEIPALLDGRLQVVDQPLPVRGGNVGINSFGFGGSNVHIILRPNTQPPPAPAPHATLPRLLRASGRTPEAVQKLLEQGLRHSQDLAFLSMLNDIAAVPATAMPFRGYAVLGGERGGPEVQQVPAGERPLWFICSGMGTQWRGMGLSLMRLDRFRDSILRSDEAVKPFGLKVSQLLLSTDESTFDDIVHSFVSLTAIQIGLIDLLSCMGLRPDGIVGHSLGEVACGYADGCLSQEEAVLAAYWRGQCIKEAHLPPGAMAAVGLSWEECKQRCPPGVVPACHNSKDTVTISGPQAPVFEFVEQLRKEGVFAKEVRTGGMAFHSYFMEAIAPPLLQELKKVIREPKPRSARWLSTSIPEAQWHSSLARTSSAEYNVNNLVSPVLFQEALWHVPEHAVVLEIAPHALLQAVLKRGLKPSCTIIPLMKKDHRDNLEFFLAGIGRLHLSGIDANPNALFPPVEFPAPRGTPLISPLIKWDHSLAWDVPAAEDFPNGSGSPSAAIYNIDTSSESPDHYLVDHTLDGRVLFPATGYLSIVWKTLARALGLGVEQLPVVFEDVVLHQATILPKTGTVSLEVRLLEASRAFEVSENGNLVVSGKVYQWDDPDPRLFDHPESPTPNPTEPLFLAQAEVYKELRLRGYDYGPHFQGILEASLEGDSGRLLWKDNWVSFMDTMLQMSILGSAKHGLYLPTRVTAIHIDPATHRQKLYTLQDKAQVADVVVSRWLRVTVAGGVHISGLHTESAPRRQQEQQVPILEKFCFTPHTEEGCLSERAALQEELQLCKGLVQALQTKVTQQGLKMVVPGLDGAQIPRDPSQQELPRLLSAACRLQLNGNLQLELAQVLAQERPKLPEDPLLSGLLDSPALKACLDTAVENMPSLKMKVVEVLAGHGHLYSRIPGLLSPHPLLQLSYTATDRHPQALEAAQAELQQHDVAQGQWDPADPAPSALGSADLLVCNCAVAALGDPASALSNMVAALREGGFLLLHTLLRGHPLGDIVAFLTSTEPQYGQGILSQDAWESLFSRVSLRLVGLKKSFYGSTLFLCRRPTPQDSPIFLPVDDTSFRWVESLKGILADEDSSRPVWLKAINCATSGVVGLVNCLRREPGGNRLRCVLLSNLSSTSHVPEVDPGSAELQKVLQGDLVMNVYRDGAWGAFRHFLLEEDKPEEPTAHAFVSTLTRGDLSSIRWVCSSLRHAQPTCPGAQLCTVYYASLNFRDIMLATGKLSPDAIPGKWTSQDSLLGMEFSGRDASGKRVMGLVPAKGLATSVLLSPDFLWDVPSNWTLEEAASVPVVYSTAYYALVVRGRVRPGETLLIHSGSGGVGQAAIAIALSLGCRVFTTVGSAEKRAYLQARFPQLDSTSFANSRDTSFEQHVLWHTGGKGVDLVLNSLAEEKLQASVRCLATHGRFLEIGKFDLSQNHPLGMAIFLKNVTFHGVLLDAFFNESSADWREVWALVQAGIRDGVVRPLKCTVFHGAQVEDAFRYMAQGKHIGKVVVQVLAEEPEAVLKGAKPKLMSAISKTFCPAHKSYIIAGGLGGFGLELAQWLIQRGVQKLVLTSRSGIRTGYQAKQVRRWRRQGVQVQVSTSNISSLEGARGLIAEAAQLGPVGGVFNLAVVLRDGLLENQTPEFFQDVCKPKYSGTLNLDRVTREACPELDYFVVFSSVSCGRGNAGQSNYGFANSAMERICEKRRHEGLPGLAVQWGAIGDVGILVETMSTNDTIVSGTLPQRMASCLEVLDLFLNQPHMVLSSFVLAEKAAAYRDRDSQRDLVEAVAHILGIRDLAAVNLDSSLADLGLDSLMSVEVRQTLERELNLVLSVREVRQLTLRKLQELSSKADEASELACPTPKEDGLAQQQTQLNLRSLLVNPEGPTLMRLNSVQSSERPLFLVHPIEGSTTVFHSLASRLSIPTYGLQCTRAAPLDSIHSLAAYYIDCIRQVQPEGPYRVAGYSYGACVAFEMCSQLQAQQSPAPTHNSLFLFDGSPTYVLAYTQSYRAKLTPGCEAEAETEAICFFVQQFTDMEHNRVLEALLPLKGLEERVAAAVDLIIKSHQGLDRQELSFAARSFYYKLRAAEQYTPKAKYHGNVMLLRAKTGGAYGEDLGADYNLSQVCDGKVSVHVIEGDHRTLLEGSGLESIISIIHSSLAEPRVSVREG
T5 sequence (P35372 whole entry): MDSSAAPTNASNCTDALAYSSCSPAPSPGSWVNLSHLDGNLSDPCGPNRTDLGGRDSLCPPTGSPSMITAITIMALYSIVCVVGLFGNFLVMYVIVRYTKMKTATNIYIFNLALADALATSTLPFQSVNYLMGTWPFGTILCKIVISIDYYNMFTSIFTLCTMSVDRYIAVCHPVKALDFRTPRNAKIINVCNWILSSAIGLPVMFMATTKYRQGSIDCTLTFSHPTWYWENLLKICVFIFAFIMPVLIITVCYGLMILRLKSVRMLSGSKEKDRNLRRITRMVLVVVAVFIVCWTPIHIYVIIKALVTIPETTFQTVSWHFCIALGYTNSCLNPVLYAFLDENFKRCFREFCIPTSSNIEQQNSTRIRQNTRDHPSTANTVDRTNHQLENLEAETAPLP
T6 sequence (P41143 whole entry): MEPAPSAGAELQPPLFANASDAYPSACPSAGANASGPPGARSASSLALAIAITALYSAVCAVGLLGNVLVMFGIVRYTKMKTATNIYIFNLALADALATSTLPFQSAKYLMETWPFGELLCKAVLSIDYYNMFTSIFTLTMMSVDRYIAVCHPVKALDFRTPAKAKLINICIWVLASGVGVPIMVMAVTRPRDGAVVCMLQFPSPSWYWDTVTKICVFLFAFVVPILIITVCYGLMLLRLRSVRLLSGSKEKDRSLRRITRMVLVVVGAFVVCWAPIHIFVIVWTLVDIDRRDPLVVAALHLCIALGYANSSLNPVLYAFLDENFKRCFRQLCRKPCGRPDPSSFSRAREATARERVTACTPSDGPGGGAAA

With Cc1ccc2nc(O)cc(C(=O)OCC(=O)c3ccccc3)c2c1 the IC50 [1] was > 79.4 µM (inactive), the IC50 [2] was > 79.4 µM (inactive) and the IC50 [3] was > 79.4 µM (inactive).

For COC(=O)N1C(=O)[C@](c2ccccc2)(C2CCCCC2)N1C(=O)OC, the IC50 (Fatty acid synthase [4]) was 0.929 µM (active), the CC50 [5] was > 10 µM (inactive) and the IC50 (Fatty acid synthase [6]) was 0.968 µM (active). For the same molecule, the CC50 [7] was > 10 µM (inactive) and the IC50 (H9c2) was 25.5 µM (active).

With Cc1ccc(CN2C3CCCC2CC(NC(=O)c2ccc(C)cc2)C3)cc1 (centres undefined) the EC50 (H4) was > 120 µM (not active), the EC50 (Beta-galactosidase) was > 31.5 µM (inactive) and the IC50 [8] was 2.62 µM (active). The IC50 [9] was 3.28 µM (active), the IC50 [10] was 0.824 µM and the EC50 [11] was > 120 µM (not active). The EC50 [12] was > 32 µM (inactive), the IC50 (Mu-type opioid receptor [13]) was > 32 µM (inactive) and the EC50 (Mu-type opioid receptor [14]) was > 32 µM (inactive). For the same molecule, the EC50 [15] was > 120 µM (not active), the IC50 [16] was > 32 µM (inactive) and the IC50 [17] was > 32 µM (inactive). The EC50 [18] was > 32 µM (inactive).

For Cc1cccn2c(=O)c3cc(C(=O)NCc4ccco4)c(=N)n(C4CCCC4)c3nc12, the EC50 [19] was > 32 µM (inactive), the IC50 [20] was > 32 µM (inactive) and the IC50 (Cannabinoid receptor 1 [21]) was > 32 µM (inactive). The EC50 (Cannabinoid receptor 2 [22]) was > 32 µM (inactive), the IC50 [23] was 1.68 µM (active) and the EC50 (Cannabinoid receptor 1 [24]) was > 32 µM (inactive). For the same molecule, the IC50 [25] was 0.407 µM (active) and the IC50 (Cannabinoid receptor 2 [26]) was > 32 µM (inactive).
